Test results taken from article PMC11019746 (ACS Pharmacology & Translational Science, 2024).
Read-outs that look alike come from different tables or passages of the source. Marks after values point to notes of the source that are not given here. One block for each molecule: values may come before it.

Legend:
hY4R-Nluc(intraECL2) = hY4R-Nluc(intraECL2) (Homo sapiens, UniProt P50391, INS195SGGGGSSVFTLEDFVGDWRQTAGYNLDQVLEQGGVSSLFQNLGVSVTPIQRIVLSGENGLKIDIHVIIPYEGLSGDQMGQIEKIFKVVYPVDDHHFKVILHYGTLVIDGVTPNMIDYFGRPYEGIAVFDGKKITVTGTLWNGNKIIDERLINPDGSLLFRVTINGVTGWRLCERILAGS); experiment: NanoBRET Y4R competition binding with 16
Protocol: One the day prior to the experiment, HEK293T-hY4R-Nluc(intraECL2) cells were detached from the culture flask by trypsinization, centrifuged (500g, 5 min), and resuspended in FBS-free L15-HEPES. The cell density was adjusted to 1.14 × 10^6 cells/mL, and the cells were seeded into white 96-well plates (Brand, Wertheim, Germany) (70 μL, 80,000 cells per well) and incubated overnight in a water-saturated atmosphere (only atmospheric CO2). […] The final BSA concentration in the assay was 1.5% (30 μL of a solution containing 5% BSA added to 70 μL of BSA-free medium, as outlined below).
All BRET measurements were performed at a temperature of 25 °C using a TECAN Infinite Lumi plate reader (Tecan, Crailsheim, Germany) equipped with an injection module. Bioluminescence of the nanoluciferase was detected using a 460/35 nm band-pass (460/35 BP) filter. The emission of the fluorescent ligands was detected through a 610 nm long-pass (610 LP) filter. […]
Total binding data from competition binding experiments were plotted as corrected BRET ratio over log(competitor concentration, M) and analyzed by a four-parameter logistic equation (log(inhibitor) vs response–variable slope, GraphPad Prism 5) to obtain the TOP value (upper curve plateau), which was used for data normalization (100% = TOP value, 0% = average of the corrected BRET ratio obtained from unspecific binding). […]

hY4R [1] = biological target: T1, hY4R (Homo sapiens, UniProt P50391); design: expressed in transfected cells; host or cells: CHO (co-expressing Gqi5 and mitochondrially targeted aequorin); conditions: cited from earlier work
[2] = biological target: T2, Y4R^SwBac displaying BBVs (Homo sapiens, UniProt P50391); experiment: Fluorescence anisotropy Y4R competition binding with 16 (Y4R^SwBac BBVs); conditions: DPBS, 16 (0.5 nM) as labeled probe, read-out: pKi FA, 137 mM Na+ (converted)
T2 construct: made in house; host or cells: Sf9 insect cells (budded baculovirus particles; MultiBac, with or without the SweetBac module)
Protocol: Two types of MultiBac baculoviruses were used: one type encodes only for hY4R resulting in BBVs displaying Y4R devoid of a mammalian-like glycosylation (herein termed Y4R^nonglyco) and the second type additionally encodes for enzymes providing a mammalian-like glycosylation in Sf9 cells (herein termed Y4R^SwBac; see also Section Molecular Cloning). The obtained viruses were collected by centrifugation at 1600g for 10 min, and the virus titer was determined with an image-based cell-size estimation assay as described elsewhere.[64] […]
FA measurements were carried out using a Synergy NEO multimode plate reader (BioTek, Winooski, VT) and black, half-area, flat-bottom polystyrene NBS (nonbinding surface) 96-well plates (Corning, Corning, NY, product no. 3993). Polarizing excitation (530 ± 15 nm) and dual emission (590 ± 17.5 nm) filters with a dichroic mirror were used, allowing the simultaneous detection of parallelly and perpendicularly polarized fluorescence emission. […]
FA signals were measured for 1.5 h.
Data processing for FA binding assays was assisted by the software Aparecium 2.0.20 developed in house (http://www.gpcr.ut.ee/software.html). Prior to the calculation of FA using eq 1,[19] the measured parallel [I∥(t)] and perpendicular [I⊥(t)] fluorescence intensities were blank-corrected on the basis of the values obtained from wells containing BBVs but no receptor ligand. […]

hY4R [3] = biological target: T1, hY4R; experiment: Flow cytometric Y4R competition binding with 16 as labeled ligand; design: expressed in transfected cells; host or cells: CHO (co-expressing Gqi5 and mitochondrially targeted aequorin); conditions: intact CHO-hY4R-Gqi5-mtAEQ cells
Protocol: The latter was used for injection of the samples of saturation and competition binding experiments. At least three individual experiments were performed in duplicate (kinetic experiments) or triplicate (saturation and competition binding). […] Measurements were stopped after counting of 2000–10000 gated events.
2 to 3 days prior to the experiment, cells were seeded in T75 or T175 culture flasks. On the day of the experiment, cells were detached by trypsinization, suspended in culture medium, and centrifuged. […] HCl (nonlabeled ligands, saturation, and kinetic experiments).

[4] = biological target: Y2 receptor (Homo sapiens) (UniProt P49146); conditions: cited from earlier work
Y4R [5] = biological target: T3, Y4R (Homo sapiens, UniProt P50391); experiment: radioligand competition binding; conditions: cited from earlier work
[6] = biological target: Y1 receptor (Homo sapiens) (UniProt P25929); conditions: cited from earlier work
Y4R [7] = biological target: T3, Y4R; experiment: radioligand competition binding (137 mM Na+); conditions: cited from earlier work
[8] = biological target: Y5 receptor (Homo sapiens) (UniProt Q15761); conditions: cited from earlier work
Y4R [9] = biological target: T3, Y4R; conditions: cited from earlier work
hY2R [10] = biological target: T4, hY2R (Homo sapiens, UniProt P49146); experiment: Y2R radioligand competition binding, whole CHO-hY2R cells, [3H]propionyl-pNPY; conditions: read-out: pKi ± SEM hY2R (converted)
T4 construct: host or cells: CHO
T4 sequence (P49146 1-381): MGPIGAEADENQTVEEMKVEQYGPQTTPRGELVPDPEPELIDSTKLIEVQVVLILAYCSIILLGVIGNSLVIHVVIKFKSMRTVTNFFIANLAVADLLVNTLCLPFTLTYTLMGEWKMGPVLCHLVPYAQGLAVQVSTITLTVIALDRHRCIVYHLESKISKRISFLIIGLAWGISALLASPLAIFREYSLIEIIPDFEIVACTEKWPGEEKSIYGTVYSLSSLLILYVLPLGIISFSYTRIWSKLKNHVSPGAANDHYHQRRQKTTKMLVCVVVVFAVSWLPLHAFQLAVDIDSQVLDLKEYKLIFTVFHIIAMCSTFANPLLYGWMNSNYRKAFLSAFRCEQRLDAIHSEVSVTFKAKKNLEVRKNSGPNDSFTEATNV
Protocol: (§1) All radioligand binding assays were performed at intact Y receptor expressing cells at 23 ± 2 °C.

hY4R [11] = biological target: T1, hY4R; experiment: Y4R cAMP CAMYEN assay (HEK293T-CAMYEN-hY4R cells); type: cell-based; design: expressed in transfected cells; conditions: read-out: CAMYEN cAMP Emax ± SEM; also: relative to 1 µM hPP (100%)
Protocol: The assay was performed with live HEK293T-CAMYEN-hY4R cells applying a reported protocol.[31] Experiments were performed in triplicate. Data processing was performed with GraphPad Prism 9.0 as previously described.[31]

hY1R [12] = biological target: T5, hY1R (Homo sapiens, UniProt P25929); experiment: Y1R radioligand competition binding, whole SK-N-MC cells, [3H]UR-MK299; conditions: SK-N-MC neuroblastoma cells, [3H]UR-MK299 c = […]
T5 construct: host or cells: SK-N-MC neuroblastoma cells
T5 sequence (P25929 1-384): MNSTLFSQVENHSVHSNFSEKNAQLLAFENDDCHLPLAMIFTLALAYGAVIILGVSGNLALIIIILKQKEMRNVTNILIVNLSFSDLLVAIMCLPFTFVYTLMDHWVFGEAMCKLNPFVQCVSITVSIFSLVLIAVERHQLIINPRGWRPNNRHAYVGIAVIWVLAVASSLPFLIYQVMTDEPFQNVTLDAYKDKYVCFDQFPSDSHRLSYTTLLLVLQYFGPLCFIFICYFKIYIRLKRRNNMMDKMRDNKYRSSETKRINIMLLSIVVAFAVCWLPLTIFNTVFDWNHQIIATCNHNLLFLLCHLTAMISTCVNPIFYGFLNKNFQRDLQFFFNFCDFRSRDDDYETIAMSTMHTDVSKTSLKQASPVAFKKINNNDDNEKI
Protocol: as §1
Competition binding assays at Y1R-expressing SK-N-MC neuroblastoma cells were performed as previously described using [^3H]UR-MK299 as radioligand (concentration: 0.15 nM).[33] […] (logarithmic form in the case of pKi values).

[13] = Chemical stability in PBS pH 7.4; type: physicochemical; conditions: PBS pH 7.4, room temperature, 48 h, 100 μM
Protocol: The chemical stability of the fluorescent ligands 16, 17, and 18 was investigated in PBS (adjusted to pH 7.4) at 22 °C. […] After time periods of 0, 6, and 48 h, an aliquot (25 μL) was withdrawn and added to 25 μL of acetonitrile/0.04% aq. TFA 1:9 v/v to obtain a peptide solution with a concentration of 50 μM. 20 μL of this solution were subjected to analytical RP-HPLC analysis using the same system and conditions as described under Analytical HPLC, but applying a different linear gradient: 0–14 min: A/B 90:10–45:55, 14–15 min: 45:55–5:95, 15–19 min: 5:95 (isocratic). A 1:1 mixture of PBS and acetonitrile/0.04% aq. TFA 1:9 v/v (20 μL) was analyzed to obtain the blank chromatogram.

hY5R [14] = biological target: T6, hY5R (Homo sapiens, UniProt Q15761); experiment: Y5R radioligand competition binding, whole HEC-1B-hY5R cells, [3H]propionyl-pNPY; conditions: [3H]propionyl-pNPY c = 5 nM
T6 construct: expressed in transfected cells; host or cells: HEC-1B (human endometrial cancer)
T6 sequence (Q15761 1-445): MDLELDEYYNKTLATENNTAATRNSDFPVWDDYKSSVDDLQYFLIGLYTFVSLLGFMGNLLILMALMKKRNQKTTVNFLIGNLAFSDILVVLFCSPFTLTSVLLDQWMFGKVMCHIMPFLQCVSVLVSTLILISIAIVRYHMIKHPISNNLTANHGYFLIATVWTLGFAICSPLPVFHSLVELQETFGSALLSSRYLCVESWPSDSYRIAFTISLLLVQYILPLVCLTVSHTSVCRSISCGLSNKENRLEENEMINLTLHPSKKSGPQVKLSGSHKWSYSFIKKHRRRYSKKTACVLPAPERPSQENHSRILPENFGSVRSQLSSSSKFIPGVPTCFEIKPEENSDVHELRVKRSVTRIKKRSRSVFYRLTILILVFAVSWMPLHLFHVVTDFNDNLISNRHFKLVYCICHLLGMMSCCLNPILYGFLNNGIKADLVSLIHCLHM
Protocol: as §1
(logarithmic form in the case of pKi values).

Y4R [15] = biological target: T3, Y4R; experiment: Y4R miniGsi recruitment assay (HEK293T-NlucN-mGsi/Y4R-NlucC cells); type: cell-based; design: expressed in transfected cells; host or cells: HEK293T; conditions: for EC50: HEK293T-NlucN-mGsi/Y4R-NlucC cells; for Emax: read-out: miniGsi recruitment Emax ± SEM; as to miniGsi recruitment Emax ± SEM: relative to 1 µM hPP (100%)
Protocol: Furimazine was used as nanoluciferase substrate. The original stock was diluted 1:1000 in L15-HEPES to obtain the feed solution for the assay. Data analysis was performed based on the areas under the curves (time window: 45 min starting with the agonist addition) using GraphPad Prism 5. […] Efficacies Emax correspond to the upper plateaus of the normalized concentration–response curves.

hY4R [16] = biological target: T1, hY4R; experiment: Y4R Ca2+ aequorin assay (CHO-hY4R-Gqi5-mtAEQ cells); type: cell-based; design: expressed in transfected cells; host or cells: CHO (co-expressing Gqi5 and mitochondrially targeted aequorin); conditions: read-out: Ca2+-aequorin Emax ± SEM
Protocol: The assay was performed with live CHO-hY4R-Gqi5-mtAEQ cells as previously described (used buffer: buffer III). Measurements were carried out on a Tecan Infinite Lumi plate reader. Data analysis was performed as reported using GraphPad Prism 5 for the calculation of the area under the curve. […] Efficacies Emax correspond to the upper plateaus of the normalized concentration–response curves.

hY2R [17] = biological target: T4, hY2R; conditions: cited from earlier work
hY1R [18] = biological target: T5, hY1R; conditions: cited from earlier work
hY5R [19] = biological target: T6, hY5R; conditions: cited from earlier work
Y4R [20] = biological target: T3, Y4R; conditions: cited from earlier work; remark: listed apart in the source
[21] = DPBS, 16 (1 nM) as labeled probe, read-out: pKi flow cytometry, 137 mM Na+ (converted)
[22] = buffer I, 16 (0.5 nM) as labeled probe, read-out: pKi flow cytometry, Na+ free (converted)
[23] = read-out: pKi ± SEM hY1R (converted)
[24] = read-out: pKi ± SEM hY5R (converted)

Molecule: hPP (from UniProt P01298)
Ki [4]: > 3000 nM
Ki (Y4R [5]): 0.1 nM
Ki [6]: 440 nM
Ki (Y4R [7]): 0.079 nM
Ki [8]: 17 nM

Molecule: Sulfo-Cy5-[K4]hPP (from UniProt P01298)
Kd (Y4R [9]): 5.6 nM

Molecule: 5-TAMRA-[K18,Nle17,30]hPP (2) (from UniProt P01298)
Kd (Y4R [20]): 26 nM

More lines, main results first:

Ki (hY4R-Nluc(intraECL2)): 0.851 nM
Ki [2]: 0.398 nM
Ki (hY4R [3]; [21]): 1.58 nM
Ki (hY4R [3]; [22]): 0.245 nM
Molecule: CCC(=O)NCCCC(=O)N[C@@H]1CC(=O)N[C@@H](CCCNC(=N)N)C(=O)N[C@@H](Cc2ccc(O)cc2)C(=O)N[C@H](C(=O)N[C@@H](CC(C)C)C(=O)N[C@@H](CCCNC(=N)N)C(=O)N[C@@H](Cc2ccc(O)cc2)C(N)=O)CCCNC(N)=NC(=O)NCCCCNC1=O [Compound 7]
pKi literature, 137 mM Na+ (hY4R [1]): 9.79 ^e

Ki (hY2R [10]): > 1000 nM
Emax (hY4R [11]): 90 ± 3%
Ki (hY1R [12]; [23]): > 1000 nM
chemical stability [13]: excellent stability
Ki (hY5R [14]; [24]): > 1000 nM
EC50 (Y4R [15]; read-out: miniGsi recruitment pEC50 ± SEM (converted)): 85.1 nM
Emax (Y4R [15]): 70 ± 9%
Emax (hY4R [16]): 71 ± 3%
Molecule: CC(C)C[C@H](NC(=O)[C@@H]1CCCNC(N)=NC(=O)NCCCCNC(=O)[C@H](NC(=O)CCCNC(=O)CCCCCN2/C(=C/C=C/C=C/C3=[N+](CCCCS(=O)(=O)[O-])c4ccccc4C3(C)C)C(C)(C)c3cc(S(=O)(=O)O)ccc32)CC(=O)N[C@@H](CCCNC(=N)N)C(=O)N[C@@H](Cc2ccc(O)cc2)C(=O)N1)C(=O)N[C@@H](CCCNC(=N)N)C(=O)N[C@@H](Cc1ccc(O)cc1)C(N)=O [Compound 17]

Ki (hY4R-Nluc(intraECL2)): 1.29 nM
Ki [2]: 0.55 nM
EC50 (Y4R [15]; read-out: miniGsi recruitment EC50 (converted)): 1.8 nM
Emax (Y4R [15]): 61 ± 2%
Ki (hY4R [3]; [21]): 0.708 nM
Ki (hY4R [3]; [22]): 0.324 nM
Molecule: CC(C)C[C@H](NC(=O)[C@@H]1CCCNC(N)=NC(=O)NCCCCNC(=O)CCC(=O)N[C@@H](CCCNC(=N)N)C(=O)N[C@@H](Cc2c[nH]c3ccccc23)C(=O)N1)C(=O)N[C@@H](CCCNC(=N)N)C(=O)N[C@@H](Cc1ccc(O)cc1)C(N)=O [Compound 5]
Ki (hY2R [17]): > 10000 nM
pKi hY2R (hY2R [17]): < 5
Ki (hY1R [18]): > 10000 nM
pKi hY1R (hY1R [18]): < 5
Ki (hY5R [19]): > 3000 nM
pKi hY5R (hY5R [19]): < 5.5

Ki (hY2R [10]): > 1000 nM
Emax (hY4R [11]): 93 ± 5%
Ki (hY1R [12]; read-out: Ki hY1R (converted)): 120 nM
Ki (hY1R [12]; [23]): 123 nM
chemical stability [13]: excellent stability
Ki (hY5R [14]; read-out: Ki hY5R (converted)): 480 nM
Ki (hY5R [14]; [24]): 479 nM
Emax (Y4R [15]): 72 ± 9%
Emax (hY4R [16]): 66 ± 2%
Molecule: CC(C)C[C@H](NC(=O)[C@@H]1CCCNC(N)=NC(=O)NCCCCNC(=O)[C@H](NC(=O)CCCNC(=O)CCC#Cc2ccc3c(c2)C(C)(C)C2=C4C=C5C6=[N+](CCC5OC4CCN23)c2ccc(S(=O)(=O)[O-])cc2C6(C)C)CC(=O)N[C@@H](CCCNC(=N)N)C(=O)N[C@@H](Cc2ccc(O)cc2)C(=O)N1)C(=O)N[C@@H](CCCNC(=N)N)C(=O)N[C@@H](Cc1ccc(O)cc1)C(N)=O (some centres unmarked) [Compound 16]
